Marks after values point to notes of the source that are not given here.
How the values were obtained:
[1] = Oil/water emulsion (β-carotene/linoleate) bleaching; conditions: test compounds 1 mM in ethanol, 50° C., 105 min
Experimental: Ten milligrams of β-carotene were dissolved in 10 ml of chloroform. A 1.2 ml portion of this solution was transferred into a round-bottom flask containing 40 mg of linoleic acid and 400 mg of Tween 40. A blank without β-carotene was also prepared (40 mg of linoleic acid+400 mg of Tween 40). After removal of chloroform under a nitrogen stream, 100 ml of oxygenated distilled water were added to the flask and the mixture was stirred vigorously. Aliquots (4.5 ml) of the above emulsion were transferred into a series of tubes containing 0.5 ml of test compounds (1 mM in ethanol) or ethanol as control. A mixture of blank (without β-carotene) was prepared for each sample. The tubes were vortexed and the zero time absorbance was read immediately at 470 nm. The tubes are kept in a water bath at 50° C. with gentle shaking, and measurement of absorbance was continued over a 105-min period at intervals of 15 min. Blank-corrected absorbance was obtained and plotted against time for kinetic curve of β-carotene bleaching. Antioxidant activity (AA) of test compounds in protecting β-carotene/linoleic acid oxidation was calculated using the following equation. AA %=[1−(A0−At)/(A0^o−At^o)]×100 where, A0 and At are corrected absorbance values for test samples measured at zero time and after incubation, respectively; while A0^o and At^o are corrected absorbance values for control at zero time and after incubation, respectively.

[2] = Incorporation into liposomes; type: physicochemical; conditions: 500 μM in ethanol added to MLV, 20 min, 37° C.
Experimental: Phosphotidylcholine (PC) (25 mg) was dissolved in a small amount of chloroform in a round bottom flask, followed by evaporation of the solvent with a rotary evaporator to obtain a thin layer film on the inner surface of the flask. Trace solvent was removed by nitrogen flush. An aqueous glucose solution (300 mM, 5 ml) was added to the flask, and the content was thoroughly vortexed and sonicated in an ultrosonicator, followed by a repeated freeze-thaw processing (4 times). The liposomal solution was diluted with 45 ml of phosphate buffer saline (PBS, 50 mM, pH7.4) and transferred into a centrifuge tube. The content was centrifuged at 13000 g for 5 min to remove the untrapped glucose. The sediment was re-suspended in 25 ml of PBS to obtain a final liposomal MLV. An aliquot (0.9 ml) of the above MLV was transferred to an Eppendorf tube containing 0.1 ml of test compounds (500 μM in ethanol) or ethanol blank. The content was mixed by vortexing and incubated for 20 min at 37° C. After incubation the mixture was centrifuged at 13000 g for 5 min, and the sediment was washed with 1 ml of 10% ethanol (in PBS), followed by a second centrifugation. The supernatants were combined and absorbance measured at 280 nm. A series of standard solutions in 10% ethanol at different concentrations was prepared for each test compound and their absorbance measured at 280 nm to construct a standard curve (absorbance VS. concentration). The un-incorporated test compounds in the supernatant were quantified using their corresponding standard curve. Percentage incorporation of each compound into the liposomes was calculated according to the following equation: % incorporation=100×(1−amount un-incorporated/amount added)=100×(1−C×2/50) where, C is the concentration of test compounds read from the standard curve. Discussion

[3] = Lipophilicity, octanol-water partition coefficient by shake flask method; type: physicochemical; conditions: 22° C., P=log Ax/(A0−Ax)
Experimental: Lipophilicity of the identified EGCG derivatives was determined as octanol-water partition coefficient (P) by a shake flask method. Briefly, a flask containing a mixture of octanol (100 ml) and deionized water (100 ml) was shaken in a shaking waterbath at room temperature (22° C.) for 24 hours. The content was then allowed to stand for 24 hours for separation into two phases. Test compounds (0.2 μmol) were dissolved in 5 ml of the upper phase (pre-saturated octanol), and the absorbance (A0) was read at 280 nm. A blank with no sample was prepared. Five milliliters of the bottom phase (pre-saturated water) were added afterwards, and the mixtures were vortexed for 1 min and allowed to stand for 24 hours for separation. Absorbance (Ax) of the upper phase in the vials was measured and octanol-water partition coefficient (P) calculated using the following equation: P=log Ax/(A0−Ax), where blank-corrected absorbance was used.

| % incorporation into liposomes [2] [%] | Lipophilicity (partition coefficient, P) [3] | SMILES | Inhibition of β-carotene bleaching [1] | logP [3] |
| --- | --- | --- | --- | --- |
| 91.19 | – | CCCCCCCCCCCCCCCCCC(=O)Oc1cc(C(=O)OC2Cc3c(O)cc(O)cc3OC2c2cc(OC(=O)CCCCCCCCCCCCCCCCC)c(O)c(OC(=O)CCCCCCCCCCCCCCCCC)c2)cc(OC(=O)CCCCCCCCCCCCCCCCC)c1O (stereo not drawn) [Compound 1a, EGCG stearate] | 16.8 ± 4.19^b % | 1.42 ± 0.02 |
| 71.81 | 1.10 ± 0.06 ^b | CCC=CCC=CCC=CCC=CCC=CCCCC(=O)Oc1cc(C(=O)OC2Cc3c(O)cc(O)cc3OC2c2cc(OC(=O)CCCC=CCC=CCC=CCC=CCC=CCC)c(O)c(OC(=O)CCCC=CCC=CCC=CCC=CCC=CCC)c2)cc(OC(=O)CCCC=CCC=CCC=CCC=CCC=CCC)c1O (stereo not drawn) [Compound 1b] | 28.0 ± 0.17^a % | – |
| 80.91 | 1.03 ± 0.10 ^b | CCC=CCC=CCC=CCC=CCC=CCC=CCCC(=O)Oc1cc(C(=O)OC2Cc3c(O)cc(O)cc3OC2c2cc(OC(=O)CCC=CCC=CCC=CCC=CCC=CCC=CCC)c(O)c(OC(=O)CCC=CCC=CCC=CCC=CCC=CCC=CCC)c2)cc(OC(=O)CCC=CCC=CCC=CCC=CCC=CCC=CCC)c1O (stereo not drawn) [Compound 1c] | 32.1 ± 4.48^a % | – |

| SMILES | % incorporation into liposomes [2] [%] | Lipophilicity (partition coefficient, P) [3] | Inhibition of β-carotene bleaching [1] | logP [3] |
| --- | --- | --- | --- | --- |
| O=C(O[C@@H]1Cc2c(O)cc(O)cc2O[C@@H]1c1cc(O)c(O)c(O)c1)c1cc(O)c(O)c(O)c1 [EGCG, Epigallocatechin gallate, reference compound] | 65.17 | – | 7.90 ± 0.64^c % | 0.48 ± 0.01 |
